The test system of the assay is pepper plants. The assay is described as follows: Iron assimilation and development of pepper plants cultivated in hydroponia. The class given is in vivo. The protocol:
Four different treatments are presented that are applied to peppers: • 1. The control received a nutritive solution containing different nutrients. • 2. The treatment AIA that received the same nutritive control solution was also treated with indol-acetic acid (natural auxin) at a dose of 10^−6 M. • 3. […] The treatment IND2 that received the same nutritive control solution was also treated with the composition of Example 1 at a dose of 10^−9 M. The pepper plants were cultivated in hydroponia.

[1] abbreviates: dose 10^−6 M in nutritive solution.

`O=C(O)Cc1c[nH]c2ccccc12` [AIA, indol-acetic acid]: under setting [1], the “Assimilated Fe, leaves” value is reported as 0.335 mg plant^−1; the “Assimilated Fe, root” value came to 2.90 mg plant^−1; the “Dry matter, leaves” value was found to be 4.04 g plant^−1; the “Dry matter, root” value came out at 1.43 g plant^−1. Further, the “Dry matter, stem” value under setting [1] worked out at 1.09 g plant^−1. Where the note is “dose 10^−6 M, control = 100”, the “Assimilated Fe, leaves (% of control)” value turned out to be 103.4%; the “Assimilated Fe, root (% of control)” value worked out at 109.8%; the “Dry matter, leaves (% of control)” value was 136%; the “Dry matter, root (% of control)” value was 130%. For the setting “dose 10^−6 M, control = 100”, the “Dry matter, stem (% of control)” value is reported as 138%. Moreover, under “versus control”, the “assimilation and translocation of iron (in words)” value is reported as “no significant effects”; the “biostimulant effect (in words)” value is “presents a biostimulant effect”.

Values taken from patent US20060234866A1, “Formulations with the capacity to increase the efficiency of plants to assimilate different mineral nutrients, especially iron, in normal conditions and in conditions of deficiency of potentially assimilable iron” (Inabonos, S.A., a Spanish joint venture company, priority 2005, published 2006).
